{"source": "paper PMC4109680", "about": "“Identification and Preclinical Pharmacology of the γ-Secretase Modulator BMS-869780” (International Journal of Alzheimer's Disease, 2014)", "key": {"[1]": {"tested_on": "Aβ1-40 (MEF PS1wt)", "test": "Aβ1-40 ELISA in MEF dKO cultures cotransfected with APP-CTF and human presenilin-1 wild type", "type": "cell-based", "details": "wild type human presenilin-1", "procedure": "H4-APPsw cell cultures were maintained on Dulbecco's modified Eagle's medium (DMEM) supplemented with L-glutamine (2 mM), fetal bovine serum (10%), and G418 (100 μg/mL). […] Aβ1-42 and Aβ1-40 assays, and Notch inhibition assays, were carried out as described previously. Mouse embryonic fibroblasts deficient in PS1 and PS2 (MEF dKO) were passaged twice per week in DMEM/F-12 medium, consisting of a 1 : 1 mixture of DMEM and F-12 nutrient mixture supplemented with 10% fetal bovine serum, penicillin, and streptomycin. For expression of human presenilin-1 in MEF dKO cells, the full length human presenilin-1 cDNA open reading frame was cloned between the BamHI and XhoI sites of the vector pcDNA5/FRT (Invitrogen), placing presenilin-1 expression under the control of the CMV promoter. […]\nIC50 determinations for Aβ1-42 and Aβ1-40 in H4-APPsw cultures in 384-well format were determined using homogeneous time-resolved fluorescence immunoassays as previously described. […] In other experiments using H4-APPsw cultures, Aβ was quantified by ELISA; for Aβ1-42 the combination of monoclonal antibodies was 26D6 and 565-HRP; for Aβ1-40 it was TSD and 26D6-HRP, and for Aβ1-x it was 4G8 and 26D6-HRP. […] For Aβ in transiently transfected PS1/PS2 dKO fibroblasts, Aβ1-42 was quantified using an ELISA kit (WACO), and Aβ1-40 was quantified by ELISA as described above for H4-APPsw cultures. […]"}, "[2]": {"test": "Rat time course PK/PD, oral dose, indirect response model", "type": "in vivo", "details": "female, Sprague-Dawley, plasma", "procedure": "Figure 8 Analysis of the PK/PD relationship for BMS-869780 in rats and mice. Rats were dosed orally with BMS-869780 at 10 mg/kg, and triple transgenic mice were orally dosed at 30 mg/kg and 100 mg/kg. Additional groups of rats and mice were dosed with vehicle alone. Brain and plasma were harvested at 3, 5, 8, 16, and 24 hours after dosing for determination of brain Aβ1-42 and plasma BMS-869780 concentration. Group sizes were 5 rats or 4 mice. Whiskers represent standard error. […] The data were fit to a one-compartment PK model and the predicted plasma BMS-869780 concentrations are shown for mouse (solid lines) and rat (broken line). […] The data were fitted using the indirect pharmacodynamic response model and predicted values are shown (solid lines). (c) Brain Aβ1-42 levels were determined for the rats dosed with BMS-869780 at 10 mg/kg (▼) or vehicle alone (●). The data were fitted using the indirect pharmacodynamic response model and predicted values are shown (dashed line). (d) Brain Aβ1-40 levels determined in the same rats as illustrated in (c).\nAll experimental procedures with animals followed National Institutes of Health guidelines and were authorized by and in compliance with policies of the Bristol-Myers Squibb Animal Use and Care Committee. Mice and rats were housed with a 6:00 AM to 6:00 PM light/dark cycle and allowed free access to food and water. For 3xTg mice, BMS-869780 was dosed in three-month-old females by oral gavage at 6 mL/kg in vehicle consisting of 84% polyethylene glycol average molecular weight of 400 (PEG-400), 15% EtOH, and 1% Tween-80 (w/w/w). The compound was dissolved in EtOH and then diluted with PEG-400 and Tween, after which the vial was sealed, vortexed, and sonicated at 56°C for 1 hour. Animals were euthanized by asphyxiation in CO2. Blood was collected by cardiac puncture and placed into ethylene-diaminetetraacetic acid microtainer tubes for the preparation of plasma. The cerebellum was collected for the determination of compound concentration, and the remaining brain was separated into left and right halves before freezing in liquid nitrogen. For the rat time course study, 8- to 12-week-old female Sprague-Dawley rats were obtained from Charles River Laboratories (Wilmington, MA), BMS-869780 was dosed orally at 4 mL/kg, and brain and plasma samples were collected as described for the 3xTg mice. For the four day repeat dose rat study, BMS-869780 was given by oral gavage in vehicle consisting of PEG-400, PEG-200, D-α-tocopheryl polyethylene glycol succinate, Solutol HS 15, in the ratio 80 : 10 : 5 : 5 (w/w/w/w). Methods for the pharmacokinetics studies in rat, dog, and monkey are described below.\nThe data generated in the mouse and rat time course experiments were analyzed sequentially by nonlinear regression (WinNonlin Pharsight Corporation, Mountain View, CA). The pharmacokinetic data were best described by a 1-compartment linear model with first-order absorption and elimination. Subsequently, the pharmacodynamic parameters were estimated from the BMS-869780 plasma concentrations and the observed reductions of brain Aβ1-42 or Aβ1-40 by fitting to the equation for inhibition of synthesis. The goodness-of-fit was determined by visual inspection, Akaike Information Criterion, Schwartz Criterion, examination of the residuals and the coefficient of variation of the parameter estimates."}}, "data": [{"smiles": "COc1cc(Nc2nc3n(n2)CCCC[C@H]3c2ccc(F)cc2)ccc1-n1cnc(Cl)c1", "note": "[BMS-869780]", "values": [{"measurement": "IC50", "setting": "[1]", "result": 11, "unit": "nM"}, {"measurement": "k el", "setting": "[2]; oral, 10 mg/kg, rat, 1-compartment PK model", "result": "2.78e-05", "unit": "s⁻¹"}, {"measurement": "AUC(0-t)", "setting": "[2]; Rat 10 mg/kg PO solution (observed 0–24 hours)", "result": 46.3, "unit": "µM·h"}]}]}
